These results are taken from ChEMBL document CHEMBL1142878, “Synthesis and cytotoxicity evaluation of substituted pyridazino[4,5-b]phenazine-5,12-diones and tri/tetra-azabenzofluorene-5,6-diones” (Eur J Med Chem, 2007).

Common to all, as to assay type: functional, cell-based
Experiment [1] has as its system HCT-15. Briefly: Anticancer activity against human HCT15 cells after 48 hrs by SRB assay. Particulars: HCT-15, 48 h. For orientation: The SRB assay estimates cell density from bound dye.
In experiment [2] the test system is SK-MEL-2. Briefly: Anticancer activity against human SK-MEL-2 cells after 48 hrs by SRB assay. The conditions noted are these: SK-MEL-2, 48 h.
Experiment [3] relates to SK-OV-3. Briefly: Anticancer activity against human SKOV3 cells after 48 hrs by SRB assay. Particulars: SK-OV-3, 48 h.
Experiment [4] concerns XF498. Briefly: Anticancer activity against human XF498 cells after 48 hrs by SRB assay. Particulars: XF498, 48 h.
For experiment [5], the system named is A549. In words: Anticancer activity against human A549 cells after 48 hrs by SRB assay. Particulars: A549, 48 h.

SMILES strings stand for the structures.

Consider `O=C1c2cnncc2C(=O)c2nc3cc(C(F)(F)F)ccc3nc21`, for which the concentration for half-maximal inhibition (IC50) was 195 nM in experiment [1]; 116 nM in experiment [2]; 79 nM in experiment [3]; 116 nM in experiment [4]; 174 nM in experiment [5].

For `O=C1C(=O)c2c(nc3cnccn23)-c2ncccc21`, the 50% inhibitory concentration (IC50) in experiment [1] was 123 nM; in experiment [2], 114 nM; in experiment [3] it was 18 nM; in experiment [4], 92 nM; in experiment [5], 98 nM.

For `Cc1cccc2nc3c(n12)C(=O)C(=O)c1cccnc1-3`, the concentration for half-maximal inhibition (IC50) was 1450 nM in experiment [1]; 1360 nM in experiment [2]; 1650 nM in experiment [3]; 2570 nM in experiment [4]; 1280 nM in experiment [5].

`O=C1C(=O)c2c(nc3c(C(=O)O)cccn23)-c2ncccc21`: the IC50 in experiment [1] came out at 122 nM; in experiment [2], 125 nM; in experiment [3], 56 nM; in experiment [4], 95 nM; in experiment [5] it was 117 nM.

Regarding `COc1cccc2nc3c(nc12)C(=O)c1cnncc1C3=O`, the concentration for half-maximal inhibition (IC50) in experiment [1] was determined as 93 nM; in experiment [2], 29 nM; in experiment [3], 39 nM; in experiment [4] it was 65 nM; in experiment [5] it was 109 nM.

Take `CCc1cccc2nc3c(nc12)C(=O)c1cnncc1C3=O`: the IC50 in experiment [1] stood at 12 nM; in experiment [2] it was 19 nM; in experiment [3] it was 34 nM; in experiment [4], 13 nM; in experiment [5], 10 nM.

In the case of `O=C1C(=O)c2c(nc3ncccn23)-c2ncccc21`, the IC50 came to 301 nM in experiment [1]; 139 nM in experiment [2]; 27 nM in experiment [3]; 137 nM in experiment [4]; 160 nM in experiment [5].

For the compound `Cc1cnc2nc3c(n2c1)C(=O)C(=O)c1cccnc1-3`, the concentration for half-maximal inhibition (IC50) in experiment [1] is 978 nM; in experiment [2], 286 nM; in experiment [3] it was 183 nM; in experiment [4], 382 nM; in experiment [5], 745 nM.

On to `O=C1c2cnncc2C(=O)c2nc3cc(OC(F)(F)F)ccc3nc21`, for which the 50% inhibitory concentration (IC50) in experiment [1] worked out at 74 nM; in experiment [2] it was 85 nM; in experiment [3] it was 63 nM; in experiment [4] it was 98 nM.

Consider `CN(C)c1ccc2nc3c(nc2c1)C(=O)c1cnncc1C3=O`, for which the half-maximal inhibitory concentration (IC50) worked out at 24 nM in experiment [1]; 88 nM in experiment [2]; 31 nM in experiment [3]; 70 nM in experiment [4]; 51 nM in experiment [5].

As for `Cc1ccc2nc3c(nc2c1C)C(=O)c1cnncc1C3=O`, the IC50 in experiment [1] came to 10 nM; in experiment [2], 12 nM; in experiment [3], 19 nM; in experiment [4], 13 nM; in experiment [5], 13 nM.

Consider `COc1cc(OC)c2nc3c(nc2c1)C(=O)c1cnncc1C3=O`, for which the 50% inhibitory concentration (IC50) in experiment [1] came to 26 nM; in experiment [2] it was 38 nM; in experiment [3], 70 nM; in experiment [4] it was 33 nM; in experiment [5], 44 nM.

Turning to `O=C1c2cnncc2C(=O)c2nc3cc4c(cc3nc21)OCO4`, the IC50 was 116 nM in experiment [1]; 151 nM in experiment [2]; 41 nM in experiment [3]; 118 nM in experiment [4]; 138 nM in experiment [5].

As to `CCOc1cccc2nc3c(nc12)C(=O)c1cnncc1C3=O`, the half-maximal inhibitory concentration (IC50) in experiment [1] was determined as 30 nM; in experiment [2], 15 nM; in experiment [3], 32 nM; in experiment [4], 29 nM; in experiment [5], 53 nM.

Regarding `Cc1cccn2c3c(nc12)-c1ncccc1C(=O)C3=O`, the half-maximal inhibitory concentration (IC50) in experiment [1] is 123 nM; in experiment [2], 122 nM; in experiment [3], 51 nM; in experiment [4] it was 86 nM; in experiment [5] it was 112 nM.

Regarding `Cc1cccc2nc3c(nc12)C(=O)c1cnncc1C3=O`, the IC50 in experiment [1] was 18 nM; in experiment [2] it was 34 nM; in experiment [3], 70 nM; in experiment [4], 21 nM; in experiment [5], 29 nM.

For the compound `O=C1C(=O)c2c(nc3ccc(Cl)cn23)-c2ncccc21`, the IC50 is 134 nM in experiment [1]; 141 nM in experiment [2]; 46 nM in experiment [3]; 124 nM in experiment [4]; 126 nM in experiment [5].

Consider `COc1cccc2c1C(=O)c1c(O)c3c(c(O)c1C2=O)C[C@@](O)(C(=O)CO)C[C@@H]3O[C@H]1C[C@H](N)[C@H](O)[C@H](C)O1` [DOXORUBICIN], for which the half-inhibitory concentration (IC50) amounted to 225 nM in experiment [1]; 97 nM in experiment [2]; 181 nM in experiment [3]; 112 nM in experiment [4]; 118 nM in experiment [5].

A word on the IC50: it is the concentration that gives 50% inhibition. Read a high IC50 as a need for much substance.
